# Experimental data as given in patent publication US12318373B2, “Methods of treating gastrointestinal stromal tumors” (Deciphera Pharmaceuticals, LLC, priority 2019, dated 2025).
# Test system: GIST patients
# Experiment: Example 3: safety, TEAEs in GIST patients at ≥100 mg daily
# Type: in vivo, human
# Method: Grade 3 or 4 treatment-emergent adverse events (TEAEs) in >5% of patients were lipase increased (18%; n=33), anemia (11%; n=20), hypertension (7%; n=13) and abdominal pain (6%; n=11). 13% of patients (n=24) experienced TEAEs leading to study treatment discontinuation, 17% of patients (n=31) experienced TEAEs leading to dose reduction and 49% of patients (n=88) had TEAEs leading to study drug interruption. Table 3 lists TEAEs>10% for GIST patients treated with ≥100 mg of ripretinib daily.
# [1] = 1st column pair, head not printed (likely Grade 1/2)
# [2] = 3rd column pair, head not printed (likely all grades)
compound,measurement,setting,value
CCn1c(=O)c(-c2cc(NC(=O)Nc3ccccc3)c(F)cc2Br)cc2cnc(NC)cc21 [ripretinib],"Patients with TEAEs leading to dose reduction, %",,17%
same,"Patients with TEAEs leading to dose reduction, number",,31
same,"Patients with TEAEs leading to study drug interruption, %",,49%
same,"Patients with TEAEs leading to study drug interruption, number",,88
same,"Patients with TEAEs leading to study treatment discontinuation, %",,13%
same,"Patients with TEAEs leading to study treatment discontinuation, number",,24
same,"Abdominal pain: patients, %",[1],(18%)
same,"Abdominal pain: patients, number",[1],33
same,"Actinic keratosis: patients, %",[1],(14%)
same,"Actinic keratosis: patients, number",[1],25
same,"Alopecia: patients, %",[1],(57%)
same,"Alopecia: patients, number",[1],102
same,"Amylase increased: patients, %",[1],(11%)
same,"Amylase increased: patients, number",[1],19
same,"Anemia: patients, %",[1],(10%)
same,"Anemia: patients, number",[1],18
same,"Arthralgia: patients, %",[1],(22%)
same,"Arthralgia: patients, number",[1],40
same,"Back Pain: patients, %",[1],(17%)
same,"Back Pain: patients, number",[1],30
same,"Blood bilirubin increase: patients, %",[1],(9%)
same,"Blood bilirubin increase: patients, number",[1],16
same,"Blood creatine phosphokinase increased: patients, %",[1],(7%)
same,"Blood creatine phosphokinase increased: patients, number",[1],13
same,"Constipation: patients, %",[1],(37%)
same,"Constipation: patients, number",[1],67
same,"Cough: patients, %",[1],(21%)
same,"Cough: patients, number",[1],37
same,"Decreased appetite: patients, %",[1],(34%)
same,"Decreased appetite: patients, number",[1],60
same,"Diarrhea: patients, %",[1],(28%)
same,"Diarrhea: patients, number",[1],50
same,"Dizziness: patients, %",[1],(16%)
same,"Dizziness: patients, number",[1],29
same,"Dry skin: patients, %",[1],(21%)
same,"Dry skin: patients, number",[1],37
same,"Dysgeusia: patients, %",[1],(11%)
same,"Dysgeusia: patients, number",[1],20
same,"Dyspnea: patients, %",[1],(18%)
same,"Dyspnea: patients, number",[1],32
same,"Fatigue: patients, %",[1],(53%)
same,"Fatigue: patients, number",[1],94
same,"Headache: patients, %",[1],(18%)
same,"Headache: patients, number",[1],33
same,"Hypertension: patients, %",[1],(14%)
same,"Hypertension: patients, number",[1],25
same,"Hypokalaemia: patients, %",[1],(12%)
same,"Hypokalaemia: patients, number",[1],21
same,"Hypomagnesaemia: patients, %",[1],(10%)
same,"Hypomagnesaemia: patients, number",[1],18
same,"Hypophosphataemia: patients, %",[1],(10%)
same,"Hypophosphataemia: patients, number",[1],17
same,"Insomnia: patients, %",[1],(12%)
same,"Insomnia: patients, number",[1],21
same,"Lipase increased: patients, %",[1],(10%)
same,"Lipase increased: patients, number",[1],18
same,"Muscle spasms: patients, %",[1],(26%)
same,"Muscle spasms: patients, number",[1],47
same,"Myalgia: patients, %",[1],(44%)
same,"Myalgia: patients, number",[1],79
same,"Nausea: patients, %",[1],(43%)
same,"Nausea: patients, number",[1],77
same,"Pain in extremity: patients, %",[1],(10%)
same,"Pain in extremity: patients, number",[1],18
same,"Palmar-plantar erythrodysaesthesia syndrome: patients, %",[1],(40%)
same,"Palmar-plantar erythrodysaesthesia syndrome: patients, number",[1],71
same,"Pruritus: patients, %",[1],(10%)
same,"Pruritus: patients, number",[1],18
same,"Rash maculo-papular: patients, %",[1],(10%)
same,"Rash maculo-papular: patients, number",[1],18
same,"Rash: patients, %",[1],(15%)
same,"Rash: patients, number",[1],27
same,"Seborrhoeic keratosis: patients, %",[1],(12%)
same,"Seborrhoeic keratosis: patients, number",[1],21
same,"Skin papilloma: patients, %",[1],(10%)
same,"Skin papilloma: patients, number",[1],17
same,"Upper respiratory tract infection: patients, %",[1],(10%)
same,"Upper respiratory tract infection: patients, number",[1],18
same,"Urinary tract infection: patients, %",[1],(9%)
same,"Urinary tract infection: patients, number",[1],16
same,"Vision blurred: patients, %",[1],(10%)
same,"Vision blurred: patients, number",[1],17
same,"Vomiting: patients, %",[1],(24%)
same,"Vomiting: patients, number",[1],42
same,"Weight decreased: patients, %",[1],(29%)
same,"Weight decreased: patients, number",[1],51
same,"Abdominal pain: patients, %",[2],(25%)
same,"Abdominal pain: patients, number",[2],44
same,"Actinic keratosis: patients, %",[2],(14%)
same,"Actinic keratosis: patients, number",[2],25
same,"Alopecia: patients, %",[2],(57%)
same,"Alopecia: patients, number",[2],102
same,"Amylase increased: patients, %",[2],(12%)
same,"Amylase increased: patients, number",[2],21
same,"Anemia: patients, %",[2],(21%)
same,"Anemia: patients, number",[2],38
same,"Arthralgia: patients, %",[2],(22%)
same,"Arthralgia: patients, number",[2],40
same,"Back Pain: patients, %",[2],(18%)
same,"Back Pain: patients, number",[2],32
same,"Blood bilirubin increase: patients, %",[2],(12%)
same,"Blood bilirubin increase: patients, number",[2],21
same,"Blood creatine phosphokinase increased: patients, %",[2],(10%)
same,"Blood creatine phosphokinase increased: patients, number",[2],18
same,"Constipation: patients, %",[2],(37%)
same,"Constipation: patients, number",[2],67
same,"Cough: patients, %",[2],(21%)
same,"Cough: patients, number",[2],37
same,"Decreased appetite: patients, %",[2],(35%)
same,"Decreased appetite: patients, number",[2],62
same,"Diarrhea: patients, %",[2],(30%)
same,"Diarrhea: patients, number",[2],53
same,"Dizziness: patients, %",[2],(16%)
same,"Dizziness: patients, number",[2],29
same,"Dry skin: patients, %",[2],(21%)
same,"Dry skin: patients, number",[2],37
same,"Dysgeusia: patients, %",[2],(11%)
same,"Dysgeusia: patients, number",[2],20
same,"Dyspnea: patients, %",[2],(20%)
same,"Dyspnea: patients, number",[2],36
same,"Fatigue: patients, %",[2],(55%)
same,"Fatigue: patients, number",[2],98
same,"Headache: patients, %",[2],(19%)
same,"Headache: patients, number",[2],34
same,"Hypertension: patients, %",[2],(21%)
same,"Hypertension: patients, number",[2],38
same,"Hypokalaemia: patients, %",[2],(15%)
same,"Hypokalaemia: patients, number",[2],26
same,"Hypomagnesaemia: patients, %",[2],(10%)
same,"Hypomagnesaemia: patients, number",[2],18
same,"Hypophosphataemia: patients, %",[2],(14%)
same,"Hypophosphataemia: patients, number",[2],25
same,"Insomnia: patients, %",[2],(12%)
same,"Insomnia: patients, number",[2],21
same,"Lipase increased: patients, %",[2],(29%)
same,"Lipase increased: patients, number",[2],51
same,"Muscle spasms: patients, %",[2],(26%)
same,"Muscle spasms: patients, number",[2],47
same,"Myalgia: patients, %",[2],(44%)
same,"Myalgia: patients, number",[2],79
same,"Nausea: patients, %",[2],(44%)
same,"Nausea: patients, number",[2],78
same,"Pain in extremity: patients, %",[2],(11%)
same,"Pain in extremity: patients, number",[2],19
same,"Palmar-plantar erythrodysaesthesia syndrome: patients, %",[2],(40%)
same,"Palmar-plantar erythrodysaesthesia syndrome: patients, number",[2],72
same,"Pruritus: patients, %",[2],(10%)
same,"Pruritus: patients, number",[2],18
same,"Rash maculo-papular: patients, %",[2],(10%)
same,"Rash maculo-papular: patients, number",[2],18
same,"Rash: patients, %",[2],(15%)
same,"Rash: patients, number",[2],27
same,"Seborrhoeic keratosis: patients, %",[2],(12%)
same,"Seborrhoeic keratosis: patients, number",[2],21
same,"Skin papilloma: patients, %",[2],(10%)
same,"Skin papilloma: patients, number",[2],17
same,"Upper respiratory tract infection: patients, %",[2],(10%)
same,"Upper respiratory tract infection: patients, number",[2],18
same,"Urinary tract infection: patients, %",[2],(11%)
same,"Urinary tract infection: patients, number",[2],20
same,"Vision blurred: patients, %",[2],(10%)
same,"Vision blurred: patients, number",[2],17
same,"Vomiting: patients, %",[2],(25%)
same,"Vomiting: patients, number",[2],44
same,"Weight decreased: patients, %",[2],(29%)
same,"Weight decreased: patients, number",[2],52
same,Tolerability,GIST patients,generally well tolerated
same,"Abdominal pain: patients, number",head not printed (Grade 3/4),11
same,"Actinic keratosis: patients, %",head not printed (Grade 3/4),(0%)
same,"Actinic keratosis: patients, number",head not printed (Grade 3/4),0
same,"Alopecia: patients, %",head not printed (Grade 3/4),(0%)
same,"Alopecia: patients, number",head not printed (Grade 3/4),0
same,"Amylase increased: patients, %",head not printed (Grade 3/4),(1%)
same,"Amylase increased: patients, number",head not printed (Grade 3/4),2
same,"Anemia: patients, number",head not printed (Grade 3/4),20
same,"Arthralgia: patients, %",head not printed (Grade 3/4),(0%)
same,"Arthralgia: patients, number",head not printed (Grade 3/4),0
same,"Back Pain: patients, %",head not printed (Grade 3/4),(1%)
same,"Back Pain: patients, number",head not printed (Grade 3/4),2
same,"Blood bilirubin increase: patients, %",head not printed (Grade 3/4),(3%)
same,"Blood bilirubin increase: patients, number",head not printed (Grade 3/4),5
same,"Blood creatine phosphokinase increased: patients, %",head not printed (Grade 3/4),(3%)
same,"Blood creatine phosphokinase increased: patients, number",head not printed (Grade 3/4),5
same,"Constipation: patients, %",head not printed (Grade 3/4),(0%)
same,"Constipation: patients, number",head not printed (Grade 3/4),0
same,"Cough: patients, %",head not printed (Grade 3/4),(0%)
same,"Cough: patients, number",head not printed (Grade 3/4),0
same,"Decreased appetite: patients, %",head not printed (Grade 3/4),(1%)
same,"Decreased appetite: patients, number",head not printed (Grade 3/4),2
same,"Diarrhea: patients, %",head not printed (Grade 3/4),(2%)
same,"Diarrhea: patients, number",head not printed (Grade 3/4),3
same,"Dizziness: patients, %",head not printed (Grade 3/4),(0%)
same,"Dizziness: patients, number",head not printed (Grade 3/4),0
same,"Dry skin: patients, %",head not printed (Grade 3/4),(0%)
same,"Dry skin: patients, number",head not printed (Grade 3/4),0
same,"Dysgeusia: patients, %",head not printed (Grade 3/4),(0%)
same,"Dysgeusia: patients, number",head not printed (Grade 3/4),0
same,"Dyspnea: patients, %",head not printed (Grade 3/4),(2%)
same,"Dyspnea: patients, number",head not printed (Grade 3/4),4
same,"Fatigue: patients, %",head not printed (Grade 3/4),(2%)
same,"Fatigue: patients, number",head not printed (Grade 3/4),4
same,"Headache: patients, %",head not printed (Grade 3/4),(1%)
same,"Headache: patients, number",head not printed (Grade 3/4),1
same,"Hypertension: patients, number",head not printed (Grade 3/4),13
same,"Hypokalaemia: patients, %",head not printed (Grade 3/4),(3%)
same,"Hypokalaemia: patients, number",head not printed (Grade 3/4),5
same,"Hypomagnesaemia: patients, %",head not printed (Grade 3/4),(0%)
same,"Hypomagnesaemia: patients, number",head not printed (Grade 3/4),0
same,"Hypophosphataemia: patients, %",head not printed (Grade 3/4),(5%)
same,"Hypophosphataemia: patients, number",head not printed (Grade 3/4),8
same,"Insomnia: patients, %",head not printed (Grade 3/4),(0%)
same,"Insomnia: patients, number",head not printed (Grade 3/4),0
same,"Lipase increased: patients, number",head not printed (Grade 3/4),33
same,"Muscle spasms: patients, %",head not printed (Grade 3/4),(0%)
same,"Muscle spasms: patients, number",head not printed (Grade 3/4),0
same,"Myalgia: patients, %",head not printed (Grade 3/4),(0%)
same,"Myalgia: patients, number",head not printed (Grade 3/4),0
same,"Nausea: patients, %",head not printed (Grade 3/4),(1%)
same,"Nausea: patients, number",head not printed (Grade 3/4),1
same,"Pain in extremity: patients, %",head not printed (Grade 3/4),(1%)
same,"Pain in extremity: patients, number",head not printed (Grade 3/4),1
same,"Palmar-plantar erythrodysaesthesia syndrome: patients, %",head not printed (Grade 3/4),(1%)
same,"Palmar-plantar erythrodysaesthesia syndrome: patients, number",head not printed (Grade 3/4),1
same,"Pruritus: patients, %",head not printed (Grade 3/4),(0%)
same,"Pruritus: patients, number",head not printed (Grade 3/4),0
same,"Rash maculo-papular: patients, %",head not printed (Grade 3/4),(0%)
same,"Rash maculo-papular: patients, number",head not printed (Grade 3/4),0
same,"Rash: patients, %",head not printed (Grade 3/4),(0%)
same,"Rash: patients, number",head not printed (Grade 3/4),0
same,"Seborrhoeic keratosis: patients, %",head not printed (Grade 3/4),(0%)
same,"Seborrhoeic keratosis: patients, number",head not printed (Grade 3/4),0
same,"Skin papilloma: patients, %",head not printed (Grade 3/4),(0%)
same,"Skin papilloma: patients, number",head not printed (Grade 3/4),0
same,"Upper respiratory tract infection: patients, %",head not printed (Grade 3/4),(0%)
same,"Upper respiratory tract infection: patients, number",head not printed (Grade 3/4),0
same,"Urinary tract infection: patients, %",head not printed (Grade 3/4),(2%)
same,"Urinary tract infection: patients, number",head not printed (Grade 3/4),4
same,"Vision blurred: patients, %",head not printed (Grade 3/4),(0%)
same,"Vision blurred: patients, number",head not printed (Grade 3/4),0
same,"Vomiting: patients, %",head not printed (Grade 3/4),(1%)
same,"Vomiting: patients, number",head not printed (Grade 3/4),2
same,"Weight decreased: patients, %",head not printed (Grade 3/4),(1%)
same,"Weight decreased: patients, number",head not printed (Grade 3/4),1
